The record followed here is patent US12520844B2 (Bayer Aktiengesellschaft, priority 2020, dated 2026).

What is called chromatographic logP is a lipophilicity value derived from retention on a column.

This data set in a line: Measurement of Log P values by HPLC on reversed phase columns (EEC directive 79/831 Annex V.A8). The data set is classed as physicochemical. On the procedure: Measurement of Log P values as provided herein was performed according to EEC directive 79/831 Annex V.A8 by HPLC (High Performance Liquid Chromatography) on reversed phase columns with the following methods: • ^[a] Log P value is determined by measurement of LC-UV, in an acidic range, with 0.1% formic acid in water and acetonitrile as eluent (linear gradient from 10% acetonitrile to 95% acetonitrile). • ^[b] Log P value is determined by measurement of LC-UV, in a neutral range, with 0.001 molar ammonium acetate solution in water and acetonitrile as eluent (linear gradient from 10% acetonitrile to 95% acetonitrile). • ^[c] Log P value is determined by measurement of LC-UV, in an acidic range, with 0.1% phosphoric acid and acetonitrile as eluent (linear gradient from 10% acetonitrile to 95% acetonitrile).
If more than one Log P value is available within the same method, all the values are given and separated by “+”.
Calibration was done with straight-chain alkan2-ones (with 3 to 16 carbon atoms) with known Log P values (measurement of Log P values using retention times with linear interpolation between successive alkanones). Lambda-max-values were determined using UV-spectra from 200 nm to 400 nm and the peak values of the chromatographic signals
Take `Cc1ncc(Oc2cccc(C3CC3)c2F)c(C(=O)NC2CCC(C)c3ccccc32)n1` (mixture of isomers) [Compound I-065]: the LogP was 4.40^[a]. Turning to `Cc1ncc(Oc2cccc(C3CC3)c2F)c(C(=O)NOCc2ccc(C#N)cc2)n1` [Compound I-097], the LogP was 2.87^[a]. Still for that read-out and setting: as for `Cc1ccc(C(F)(F)CNC(=O)c2nc(C)ncc2Oc2cccc(C)c2F)c(C)c1` [Compound I-083], the figure is 4.07^[a]; as for `Cc1ccc(C(F)=CNC(=O)c2nc(C3CC3)nnc2Oc2cccc(Br)c2F)c(C)c1` [Compound I-027], 5.36^[a]; as for `Cc1ncc(Oc2cccc(C3CC3)c2F)c(C(=O)NCCc2ncc(Cl)cn2)n1` [Compound I-016], 2.72^[a]. Consider `Cc1ncc(Oc2cccc(C3CC3)c2F)c(C(=O)NC2CC(C)(C)Oc3cc(Cl)c(F)cc32)n1` (stereo not drawn) [Compound I-080], for which the LogP was 4.87^[a]. As to `Cc1ncc(Oc2cccc(C3CC3)c2F)c(C(=O)NCC(F)c2ccc(Cl)c(Cl)c2)n1` (racemic) [Compound I-127], the LogP is 4.38^[a].

On to `Cc1ncc(Oc2cccc(C3CC3)c2F)c(C(=O)NCC(F)c2ccc(C)c(C)c2)n1` (stereo not drawn) [Compound I-043], for which the LogP is 4.22^[a]. The same measure, in the same setting: as for `CSc1ncc(Oc2cccc(C(F)(F)F)c2)c(C(=O)NCC(F)(F)c2ccc(C)cc2C)n1` [Compound I-012], the figure is 4.97^[a]; as for `Cc1ccc(C(F)=CNC(=O)c2nc(C3CC3)nnc2Oc2cccc(Br)c2F)c(C)c1` [Compound I-048], 5.04^[a]; as for `Cc1ccc(C(F)(F)CNC(=O)c2nc(C)ncc2Oc2cccc(C3COC3)c2)c(C)c1` [Compound I-056], 3.32^[a].

On to `Cc1ncc(Oc2cccc(C3CC3)c2F)c(C(=O)NCCc2ccc(C)o2)n1` [Compound I-041], for which the LogP was 3.52^[a]. Take `Cc1ccc(C(F)(F)CNC(=O)c2nc(C)ncc2Oc2ccc(Cl)c(C(F)(F)F)c2)c(C)c1` [Compound I-108]: the LogP is 4.72^[a]. Same read-out and setting: in the case of `COc1ccc2c(c1)C(NC(=O)c1nc(C)ncc1Oc1cccc(C3CC3)c1F)C(OC)CC2` (stereo not drawn) [Compound I-060] it was 3.72^[a]; in that of `Cc1ccc(C(F)(F)CNC(=O)c2nc(C3CC3)nnc2Oc2cccc(Cl)c2F)c(C)c1` [Compound I-131], 4.62^[a]; in that of `Cc1ccc(C(F)(F)CNC(=O)c2nc(C)ncc2Oc2cncc(C(F)(F)F)c2)c(C)c1` [Compound I-068], 3.73^[a]. In the case of `Cc1ccc(C(F)(F)CNC(=O)c2nc(C)ncc2Oc2cccc(C3CC3)c2)c(C)c1` [Compound I-015, 5-(3-cyclopropylphenoxy)-N-[2-(2,4-dimethylphenyl)-2,2-difluoroethyl]-2-methylpyrimidine-4-carboxamide], the chromatographic logP is 4.38. Take `CCON(Cc1ccccc1)C(=O)c1nc(C)ncc1Oc1cccc(C2CC2)c1F` [Compound I-123]: the LogP is 3.97^[a]. Still for that read-out and setting: as for `Cc1ccc(C(F)(F)CNC(=O)c2nc(C3CC3)nnc2Oc2cccc(C(F)(F)F)c2)c(C)c1` [Compound I-121], the figure is 4.74^[a]; as for `Cc1ccc(C(F)(F)CNC(=O)c2nc(C)ncc2Oc2cccc(N(C)C)c2)c(C)c1` [Compound I-035], 3.88^[a]. Still for that read-out and setting: in the case of `CCN(CCc1ccccc1)C(=O)c1nc(C)ncc1Oc1cccc(C2CC2)c1F` [Compound I-111] it was 4.04^[a].

On to `Cc1nnc(Oc2cccc(C(F)(F)F)c2)c(C(=O)NCC(F)(F)c2ccc(Cl)cc2)n1` [Compound I-006], for which the LogP was 3.85^[a]. As for `Cc1ccc(C(F)(F)CNC(=O)c2nc(C3CC3)nnc2Oc2cccc(Br)c2)c(C)c1` [Compound I-062], the LogP was 4.59^[a]. On the same count and under the same terms, in the case of `Cc1ncc(Oc2cccc(C3CC3)c2F)c(C(=O)NC2CCCc3cc(Br)ccc32)n1` (stereo not drawn) [Compound I-069] it was 4.71^[a]. With `CCC(=O)N(CCc1ccccc1)C(=O)c1nc(C)ncc1Oc1cccc(C2CC2)c1F` [Compound I-066], the LogP is 4.52^[a]. On the same count and under the same terms, in the case of `COCCOc1cccc(Oc2cnc(C)nc2C(=O)NCC(F)(F)c2ccc(C)cc2C)c1` [Compound I-059] it was 3.66^[a]; in that of `CCOC(=O)c1nc(C2CC2)nnc1Oc1cccc(C2CC2)c1F` [Compound 1-08], 4.19^[a]. On the same count and under the same terms, as for `Cc1ccc(C(F)(F)CNC(=O)c2nc(C3CC3)nnc2Oc2cccc(C(F)(F)F)c2)c(Cl)c1` [Compound I-130], the figure is 4.66^[a]; as for `O=C(O)c1nc(C2CC2)ncc1Oc1cccc(C(F)(F)F)c1` [Compound 1-03], 2.49^[a]; as for `C=Cc1cccc(Oc2cnc(C)nc2C(=O)NCC(F)(F)c2ccc(C)cc2C)c1` [Compound I-115], 4.17^[a].

`Cc1ccc(C(F)(F)CNC(=O)c2nc(C)ncc2Oc2cccc(C3CC3)c2F)c(C)c1` [Compound I-103]: the LogP is 4.44^[a]. For `CON(CCc1ccc(Cl)cc1Cl)C(=O)c1nc(C)ncc1Oc1cccc(C2CC2)c1F` [Compound I-034], the LogP is 4.91^[a].

Consider `Cc1ncc(Oc2cccc(C3CC3)c2F)c(C(=O)NCCc2ccc3c(c2)OCO3)n1` [Compound I-124], for which the LogP was 3.34^[a].

As for `Cc1ncc(Oc2cccc(C3CC3)c2F)c(C(=O)NC2CCS(=O)(=O)c3ccccc32)n1` (stereo not drawn) [Compound I-057], the LogP was 2.78^[a]. Still for that read-out and setting: in the case of `CCOC(=O)c1nc(C2CC2)nnc1Oc1cccc(Br)c1F` [Compound 1-07] it was 3.93^[a]. The same measure, in the same setting: as for `Cc1ncc(Oc2cccc(C3CC3)c2F)c(C(=O)NC(C)c2ccc(Cl)s2)n1` (stereo not drawn) [Compound I-076], the figure is 4.09^[a]. The same measure, in the same setting: in the case of `CCc1ncc(Cl)c(C(=O)NCC(F)(F)c2ccc(C)cc2C)n1` [Compound 3-01] it was 3.77^[a]; in that of `CSc1ncc(Br)c(C(=O)NCC(F)(F)c2ccc(C)cc2C)n1` [Compound 3-03], 4.05^[a]. Turning to `Cc1ncc(Oc2cccc(C3CC3)c2F)c(C(=O)NOCc2ccc(OC(F)(F)F)cc2)n1` [Compound I-100], the LogP was 3.89^[a].

In the case of `COc1ccc2c(c1)C(NC(=O)c1nc(C)ncc1Oc1cccc(C3CC3)c1F)C(OC)CC2` (stereo not drawn) [Compound I-116], the LogP is 3.99^[a]. Same read-out and setting: as for `CSc1cccc(Oc2cnc(C)nc2C(=O)NCC(F)(F)c2ccc(C)cc2C)c1` [Compound I-126], the figure is 4.11^[a]; as for `CCc1cccc(Oc2cnc(C)nc2C(=O)NCC(F)(F)c2ccc(C)cc2C)c1` [Compound I-071], 4.42^[a].

In the case of `Cc1ccc(C(F)=CNC(=O)c2nc(C3CC3)nnc2Oc2cccc(Br)c2)c(C)c1` [Compound I-132], the LogP is 4.97^[a].

For the compound `Cc1ccc(/C(F)=C\NC(=O)c2nc(C3CC3)nnc2Oc2cccc(C)c2F)c(C)c1` [Compound I-051], the LogP is 5.16^[a]. `Cc1ccc(C(F)(F)CNC(=O)c2nc(C)ncc2Oc2cccc(OC(F)(F)F)c2)c(C)c1` [Compound I-094]: the LogP was 4.50^[a]. The same measure, in the same setting: as for `Cc1ccc2c(c1)C(NC(=O)c1nc(C)ncc1Oc1cccc(C3CC3)c1F)CC(C)(C)O2` (stereo not drawn) [Compound I-055], the figure is 4.42^[a]; as for `Cc1ncc(Oc2cccc(C3CC3)c2F)c(C(=O)N[C@H]2CCOc3ccc(F)cc32)n1` [Compound I-017], 3.62^[a]. For the compound `Cc1ncc(Oc2cccc(C3CC3)c2F)c(C(=O)NC2CCOc3ccccc32)n1` (stereo not drawn) [Compound I-046], the LogP was 3.54^[a].
